What was measured:
[1] = thermodynamic stability (DSC, solubility tests and other experiments); assay type: physicochemical; details: compared with modification A
Experimental: Characteristic for modification B is also the thermogram in DSC (differential scanning calorimetry, see FIG. 5). It has an endothermic peak in the range from 120° C. to 128° C. depending on purity. For example, crystal modification B in pure form has a peak temperature of 128° C. and an endothermic signal around 90 J/g. This thermogram is characteristically different from the thermogram of the modification A (see FIG. 6), which has an endothermic peak at about 112° C. and an endothermic signal of 76 J/g. The measurement was carried out on a Metier Toledo 820 DSC in a closed pan with a heating rate of 10 K/minute. The typical sample quantity is about 5 mg.

[2] = water solubility of crystal modifications; assay type: physicochemical; details: over relevant temperature ranges; compared with modification A

What does the source list for CC(C)C1C2CCC1c1c(NC(=O)c3cn(C)nc3C(F)F)cccc12 (stereo not drawn) [modification B, syn-3-difluoromethyl-1-methyl-1H-pyrazole-4-carboxylic acid (9-isopropyl-1,2,3,4-tetrahydro-1,4-methano-naphthalen-5-yl)-amide]?
thermodynamic stability [1]: substantially better thermodynamic stability than the modification A; water solubility [2]: lower than the water solubility of modification A
